Data on seven compounds can be found in patent US11471468B2, “Methods and systems for conditioning of particulate crystalline materials” (Pearl Therapeutics, Inc., priority 2013, dated 2022).

What all share (format): physicochemical
Data set [1] in a line: Particle size distribution by laser diffraction (Sympatec) after processing. The following applies: for Physical stability after micronization judged from size distribution: laser diffraction, Tables 4 and 5; for D10 / D50 / D90: micronized/annealed GP, scale-up ~1 kg batches, mean of n=3 replicates per collector; for Particle Size Distribution Initial Span / Particle Size Distribution Initial X50 / Particle Size Distribution Initial X90: micronized sucrose. The text has this: When referred to herein, the term “optical diameter” indicates the size of a particle as measured using a laser diffraction particle size analyzer equipped with a dry powder dispenser (e.g., Sympatec GmbH, Clausthal-Zellerfeld, Germany).
(§1) A portion of the micronized GP was also conditioned using an in-process conditioning system wherein nitrogen conditioning gas was supplied to the in-process conditioning system and was controlled for flow rate, temperature and humidity. The conditioning gas was humidified through a droplet evaporation chamber after which it was directed to a mixing zone. In the mixing zone, the conditioning gas was mixed with the jet-milled aerosol comprising the micronized GP. The aerosol then entered a conditioning zone where annealing of the micronized GP occurred. The particle residence time through the conditioning zone was adjusted by means of the conditioning zone chamber geometry and/or the gas flow rate through the conditioning zone chamber. After passing through the conditioning zone, the micronized GP particles reached the cyclone-collection zone where the solid particles were separated from the gas phase and transported to a collection vessel. Upon completion of the batch processing, the collector was disengaged and transferred to a glove box for sampling. The sampling occurred in a <5% relative humidity environment. Samples were then analyzed for particle size distribution and amorphous content.
(§2) Both micronized sucrose batches were analyzed for particle size distribution by Sympatec laser diffraction.

Test in data set [2]: as above
The following applies: for D10 / D50 / D90 / Span: micronized fluticasone propionate; for Particle Size Distribution Initial X10: micronized sucrose.

Data set [3] can be described thus: Particle morphology by electron micrograph / SEM. Conditions: FIG. 10 / FIG. 12 / FIG. 14. The method, then: (§3) The amorphous content by vapor sorption and particle morphology for both batches were also assessed. FIG. 9 provides the ethanol vapor sorption isotherm at 25° C. for both batches of micronized budesonide.
(§4) The amorphous content by vapor sorption and particle morphology for both batches were also assessed. FIG. 11 provides the ethanol vapor sorption isotherm at 25° C. for both batches of micronized fluticasone.
(§5) The amorphous content by vapor sorption and particle morphology for both batches of micronized sucrose were also assessed. FIG. 13 provides the water vapor sorption isotherm at 25° C. for both batches of micronized sucrose.

Data set [4] can be described thus: Amorphous content by (dynamic) vapor sorption. The following applies: for Amorphous content by ethanol vapor sorption isotherm / Amorphous content by water vapor sorption isotherm: 25° C.; for Amorphous content by ethanol vapor sorption isotherm: FIG. 9 / FIG. 11; for Calculated Amorphous Content, Collector 1 / Calculated Amorphous Content, Collector 2: conditioned GP, dynamic vapor sorption, n=2 replicates per collector; for Amorphous content by water vapor sorption isotherm: FIG. 13.
Source text: as §1, §3, §4
All batches were also analyzed for amorphous content by dynamic vapor sorption using n=2 replicates per collector.
as §5

Data set [5] can be described thus: Physical stability: particle size distribution and fusing after 1-day exposure to 25° C. and 60% relative humidity. Conditions: micronized sucrose; for Physical Stability: 25° C./60% RH; for Stability of powder on exposure: Sucrose A by visual observation, Sucrose B exposed to 25° C./60% RH.
Source text: When used to refer to the conditioned particulate material described herein, the terms “physical stability” and “physically stable” refer to a composition that is resistant to one or more of particle fusing, aggregation, agglomeration, and particle size changes. In certain embodiments, physical stability may be evaluated through exposing the particulate material to accelerated degradation conditions, such as increased temperature and/or humidity as described herein.
as §2

Data set [6] can be described thus: Stability diagram (glass transition plasticization curve combined with sorption isotherm). The following applies: from stability diagram FIG. 18. The text has this:
Crystallization of an amorphous phase typically occurs rapidly when the amorphous material is exposed to conditions that exceed its glass transition temperature, usually twenty degrees Celsius above the glass transition temperature (Lechuga-Ballesteros, D.; Miller, D. P.; Zhang, J., Residual water in amorphous solids, measurement and effects on stability. In Progress in Amorphous Food and Pharmaceutical Systems, Levine, H., Ed. The Royal Society of Chemistry: London, 2002; pp 275-316). Exposure of amorphous material to temperature in excess of the glass transition can be achieved in the absence of any solvent by exposing the amorphous material to a stream of hot air above its glass transition temperature. However, the glass transition temperature is also a function of the fraction of solvent present in the amorphous material, an effect known as plasticization.
In addition, the solvent content held in an amorphous material is a function of the vapor concentration of the solvent surrounding the amorphous solid. The sorption isotherm of a given material is a representation of the amount of solvent in the amorphous material as a function of the solvent activity (which is proportional to the solvent vapor pressure to saturation solvent vapor pressure ratio) at a given temperature. […]

The mark [7] stands for this setting: listed as Batch C - Collector 1.
[8] abbreviates: listed as Batch C - Collector 2.
The mark [9] stands for this setting: listed as Batch B - Collector 1.
[10] abbreviates: listed as Batch B - Collector 2.

Bounds are passed on as bounds.

In the case of `CCC(=O)O[C@]1(C(=O)SCF)[C@H](C)C[C@H]2[C@@H]3C[C@H](F)C4=CC(=O)C=C[C@]4(C)[C@@]3(F)[C@@H](O)C[C@@]21C` [Micronized Fluticasone propionate, Batch 2 (annealed)], the “Physical stability after micronization judged from size distribution” value in data set [1] is “good physical stability”. Besides, in data set [2], the D10 stood at 0.5 μm, the D50 turned out to be 1.4 μm, the D90 worked out at 3.1 μm and the Span stood at 1.9. For the same compound, the “Particle morphology by SEM, annealed compared with unannealed material” value in data set [3] was “smoother surfaces and more rounded edges”. In addition, in data set [4], the “Amorphous content by ethanol vapor sorption isotherm” value was “stable and showed no crystallization event”.

In the case of `C[N+]1(C)CCC(OC(=O)C(O)(c2ccccc2)C2CCCC2)C1` (single isomer, unassigned) [Batch C, Glycopyrrolate], in data set [1] (setting [7]), the D10 is reported as 0.52 μm, the D50 worked out at 1.47 μm and the D90 is on record as 3.03 μm. Moreover, in data set [1] (setting [8]), the D10 was 0.51 μm, the D50 is reported as 1.45 μm and the D90 was found to be 2.96 μm. Further, in data set [4], the “Calculated Amorphous Content, Collector 1” value is 2.65% and the “Calculated Amorphous Content, Collector 2” value is listed as 2.45%.

For `CCC(=O)O[C@]1(C(=O)SCF)[C@H](C)C[C@H]2[C@@H]3C[C@H](F)C4=CC(=O)C=C[C@]4(C)[C@@]3(F)[C@@H](O)C[C@@]21C` [Micronized Fluticasone propionate, Batch 1 (unannealed)], in data set [1], the “Physical stability after micronization judged from size distribution” value was “agglomeration”. Also, in data set [2], the D10 stood at 0.5 μm, the D50 is 1.5 μm, the D90 came out at 3.4 μm and the Span is on record as 2.0. Further, the “Ethanol relative pressure at which weight loss is seen” value in data set [4] (ethanol vapor sorption isotherm at 25° C.) was determined as 60 % p/po. In addition, the “Amorphous content by ethanol vapor sorption isotherm” value in data set [4] was “remained substantially amorphous”.

With `C[N+]1(C)CCC(OC(=O)C(O)(c2ccccc2)C2CCCC2)C1` (single isomer, unassigned) [Batch B, Glycopyrrolate], in data set [1] (setting [9]), the D10 is 0.52 μm, the D50 is listed as 1.47 μm and the D90 is recorded as 3.02 μm. For the same compound, in data set [1] (setting [10]), the D10 came out at 0.52 μm, the D50 is reported as 1.46 μm and the D90 is 2.99 μm. For the same compound, in data set [4], the “Calculated Amorphous Content, Collector 1” value is 2.65% and the “Calculated Amorphous Content, Collector 2” value is given as 2.40%.

As for `OC[C@H]1O[C@@](CO)(O[C@H]2O[C@H](CO)[C@@H](O)[C@H](O)[C@H]2O)[C@@H](O)[C@@H]1O` [Sucrose B, Sucrose], in data set [5], the “Physical Stability” value is “Stable,” and the “Stability of powder on exposure” value is listed as “good stability”. In data set [5] (T = 1 day at 25° C./60% RH), the Particle Size Distribution T = 1 day at 25° C./60% RH Span amounted to 1.9, the “Particle Size Distribution T = 1 day at 25° C./60% RH X10” value was 0.7 μm, the “Particle Size Distribution T = 1 day at 25° C./60% RH X50” value turned out to be 2.5 μm and the “Particle Size Distribution T = 1 day at 25° C./60% RH X90” value came to 5.2 μm. In data set [1] (listed as Sucrose 2), the Particle Size Distribution Initial Span amounted to 1.9, the “Particle Size Distribution Initial X50” value amounted to 2.2 μm and the “Particle Size Distribution Initial X90” value was 4.9 μm. Besides, in data set [2] (listed as Sucrose 2), the “Particle Size Distribution Initial X10” value is reported as 0.6 μm. In addition, in data set [3], the “Particle morphology by SEM, annealed compared with unannealed material” value is “smoother surfaces and more rounded edges”. Further, the “Amorphous content by water vapor sorption isotherm” value in data set [4] was “stable and showed no crystallization event”.

`OC[C@H]1O[C@@](CO)(O[C@H]2O[C@H](CO)[C@@H](O)[C@H](O)[C@H]2O)[C@@H](O)[C@@H]1O` [Sucrose A, Sucrose]: the “Physical Stability” value in data set [5] (listed as Sucrose 1) is reported as “Unstable,”. Further, the “Stability of powder on exposure” value in data set [5] was “fusing of the material”. Moreover, in data set [1] (listed as Sucrose 1), the Particle Size Distribution Initial Span was 2.4, the “Particle Size Distribution Initial X50” value is on record as 1.7 μm and the “Particle Size Distribution Initial X90” value was 4.5 μm. Moreover, in data set [2] (listed as Sucrose 1), the “Particle Size Distribution Initial X10” value is given as 0.5 μm. In addition, in data set [4] (water vapor sorption isotherm at 25° C.), the “Water relative pressure at which weight loss is seen” value is on record as 30 % p/po. In addition, the “Amorphous content by water vapor sorption isotherm” value in data set [4] is “remained substantially amorphous”.

With `C[N+]1(C)CCC(OC(=O)C(O)(c2ccccc2)C2CCCC2)C1.[Br-]` (stereo not shown) [glycopyrrolate, 3-[(cyclopentylhydroxyphenylacetyl)oxy]-1,1-dimethylpyrrolidinium bromide], the “RH required to promote annealing” value in data set [6] (at 60° C.) is 10 % RH. For the same compound, the “RH at which fast crystallization of amorphous material will occur” value in data set [6] (in the range of 20-40° C.) is on record as greater than 50%.
